Experimental data reported in ChEMBL document CHEMBL4033677, “Design and synthesis of pyrazolo[3,4-d]pyrimidines: Nitric oxide releasing compounds targeting hepatocellular carcinoma” (Bioorg Med Chem, 2017).

Key:
Format in all cases: functional
SK-MEL-28 = experiment: Growth inhibition of human SK-MEL-28 cells assessed as cell growth at 10^-5 M incubated for 48 hrs by sulforhodamine B assay relative to control; details: SK-MEL-28, 48 h, read-out: Activity
MOLT-4 = experiment: Growth inhibition of human MOLT4 cells assessed as cell growth at 10^-5 M incubated for 48 hrs by sulforhodamine B assay relative to control; details: MOLT-4, 48 h, read-out: Activity
HL-60(TB) = experiment: Growth inhibition of human HL-60(TB) cells assessed as cell growth at 10^-5 M incubated for 48 hrs by sulforhodamine B assay relative to control; details: HL-60, 48 h, read-out: Activity
UO-31 = experiment: Growth inhibition of human UO31 cells assessed as cell growth at 10^-5 M incubated for 48 hrs by sulforhodamine B assay relative to control; details: UO-31, 48 h, read-out: Activity
UACC-257 = experiment: Growth inhibition of human UACC257 cells assessed as cell growth at 10^-5 M incubated for 48 hrs by sulforhodamine B assay relative to control; details: UACC-257, 48 h, read-out: Activity
EKVX = experiment: Growth inhibition of human EKVX cells assessed as cell growth at 10^-5 M incubated for 48 hrs by sulforhodamine B assay relative to control; details: read-out: Activity
NCI-H23 = experiment: Growth inhibition of human NCI-H23 cells assessed as cell growth at 10^-5 M incubated for 48 hrs by sulforhodamine B assay relative to control; details: NCI-H23, 48 h, read-out: Activity
MDA-MB-231 = experiment: Growth inhibition of human MDA-MB-231 cells assessed as cell growth at 10^-5 M incubated for 48 hrs by sulforhodamine B assay relative to control; details: MDA-MB-231, 48 h, read-out: Activity
OVCAR-8 = experiment: Growth inhibition of human OVCAR8 cells assessed as cell growth at 10^-5 M incubated for 48 hrs by sulforhodamine B assay relative to control; details: OVCAR-8, 48 h, read-out: Activity
RXF 393 = experiment: Growth inhibition of human RXF393 cells assessed as cell growth at 10^-5 M incubated for 48 hrs by sulforhodamine B assay relative to control; details: RXF 393, 48 h, read-out: Activity
LOX IMVI = experiment: Growth inhibition of human LOXIMVI cells assessed as cell growth at 10^-5 M incubated for 48 hrs by sulforhodamine B assay relative to control; details: read-out: Activity
CAKI-1 = experiment: Growth inhibition of human Caki1 cells assessed as cell growth at 10^-5 M incubated for 48 hrs by sulforhodamine B assay relative to control; details: CAKI-1, 48 h, read-out: Activity
OVCAR-5 = experiment: Growth inhibition of human OVCAR5 cells assessed as cell growth at 10^-5 M incubated for 48 hrs by sulforhodamine B assay relative to control; details: OVCAR-5, 48 h, read-out: Activity
SNB-75 = experiment: Growth inhibition of human SNB75 cells assessed as cell growth at 10^-5 M incubated for 48 hrs by sulforhodamine B assay relative to control; details: SNB-75, 48 h, read-out: Activity
A549 = experiment: Growth inhibition of human A549/ATCC cells assessed as cell growth at 10^-5 M incubated for 48 hrs by sulforhodamine B assay relative to control; details: A549, 48 h, read-out: Activity
DU-145 = experiment: Growth inhibition of human DU145 cells assessed as cell growth at 10^-5 M incubated for 48 hrs by sulforhodamine B assay relative to control; details: DU-145, 48 h, read-out: Activity
MCF7 = experiment: Growth inhibition of human MCF7 cells assessed as cell growth at 10^-5 M incubated for 48 hrs by sulforhodamine B assay relative to control; details: MCF7, 48 h, read-out: Activity
NCI-H226 = experiment: Growth inhibition of human NCI-H226 cells assessed as cell growth at 10^-5 M incubated for 48 hrs by sulforhodamine B assay relative to control; details: NCI-H226, 48 h, read-out: Activity
786-0 = experiment: Growth inhibition of human 786-0 cells assessed as cell growth at 10^-5 M incubated for 48 hrs by sulforhodamine B assay relative to control; details: 786-0, 48 h, read-out: Activity
NCI-H522 = experiment: Growth inhibition of human NCI-H522 cells assessed as cell growth at 10^-5 M incubated for 48 hrs by sulforhodamine B assay relative to control; details: NCI-H522, 48 h, read-out: Activity
HCT-116 = experiment: Growth inhibition of human HCT116 cells assessed as cell growth at 10^-5 M incubated for 48 hrs by sulforhodamine B assay relative to control; details: HCT-116, 48 h, read-out: Activity
SW-620 = experiment: Growth inhibition of human SW620 cells assessed as cell growth at 10^-5 M incubated for 48 hrs by sulforhodamine B assay relative to control; details: SW-620, 48 h, read-out: Activity
NCI-H460 = experiment: Growth inhibition of human NCI-H460 cells assessed as cell growth at 10^-5 M incubated for 48 hrs by sulforhodamine B assay relative to control; details: NCI-H460, 48 h, read-out: Activity
K562 = experiment: Growth inhibition of human K562 cells assessed as cell growth at 10^-5 M incubated for 48 hrs by sulforhodamine B assay relative to control; details: K562, 48 h, read-out: Activity
KM12 = experiment: Growth inhibition of human KM12 cells assessed as cell growth at 10^-5 M incubated for 48 hrs by sulforhodamine B assay relative to control; details: KM12, 48 h, read-out: Activity
TK-10 = experiment: Growth inhibition of human TK10 cells assessed as cell growth at 10^-5 M incubated for 48 hrs by sulforhodamine B assay relative to control; details: TK-10, 48 h, read-out: Activity
SR = experiment: Growth inhibition of human SR cells assessed as cell growth at 10^-5 M incubated for 48 hrs by sulforhodamine B assay relative to control; details: read-out: Activity
HCT-15 = experiment: Growth inhibition of human HCT15 cells assessed as cell growth at 10^-5 M incubated for 48 hrs by sulforhodamine B assay relative to control; details: HCT-15, 48 h, read-out: Activity
SF-268 = experiment: Growth inhibition of human SF268 cells assessed as cell growth at 10^-5 M incubated for 48 hrs by sulforhodamine B assay relative to control; details: SF-268, 48 h, read-out: Activity
ACHN = experiment: Growth inhibition of human ACHN cells assessed as cell growth at 10^-5 M incubated for 48 hrs by sulforhodamine B assay relative to control; details: read-out: Activity
SK-MEL-5 = experiment: Growth inhibition of human SK-MEL-5 cells assessed as cell growth at 10^-5 M incubated for 48 hrs by sulforhodamine B assay relative to control; details: SK-MEL-5, 48 h, read-out: Activity
SK-MEL-2 = experiment: Growth inhibition of human SK-MEL-2 cells assessed as cell growth at 10^-5 M incubated for 48 hrs by sulforhodamine B assay relative to control; details: SK-MEL-2, 48 h, read-out: Activity

| SMILES | growth at 10 µM (SK-MEL-28) | growth at 10 µM (MOLT-4) | growth at 10 µM (HL-60(TB)) | growth at 10 µM (UO-31) | growth at 10 µM (UACC-257) | growth at 10 µM (EKVX) | growth at 10 µM (NCI-H23) | growth at 10 µM (MDA-MB-231) | growth at 10 µM (OVCAR-8) | growth at 10 µM (RXF 393) | growth at 10 µM (LOX IMVI) | growth at 10 µM (CAKI-1) | growth at 10 µM (OVCAR-5) | growth at 10 µM (SNB-75) | growth at 10 µM (A549) | growth at 10 µM (DU-145) | growth at 10 µM (MCF7) | growth at 10 µM (NCI-H226) | growth at 10 µM (786-0) | growth at 10 µM (NCI-H522) | also measured |
| --- | --- | --- | --- | --- | --- | --- | --- | --- | --- | --- | --- | --- | --- | --- | --- | --- | --- | --- | --- | --- | --- |
| BrCCCOc1ccc(Nc2ncnc3c2cnn3-c2ccccc2)cc1 | 107% | 83.6% | 95.8% | 75.8% | 109% | 83.2% | 91.5% | 96.9% | 92.7% | 105% | 98.1% | 98.2% | 104% | 93.3% | 90.7% | 108% | 88.8% | 84.1% | 106% | 78.4% | growth at 10 µM (HCT-116): 96.7%; growth at 10 µM (SW-620): 114%; growth at 10 µM (NCI-H460): 107%; growth at 10 µM (K562): 105%; growth at 10 µM (KM12): 88.9%; growth at 10 µM (TK-10): 128%; growth at 10 µM (SR): 82.6%; growth at 10 µM (HCT-15): 59.2%; growth at 10 µM (SF-268): 86%; growth at 10 µM (ACHN): 96.5%; growth at 10 µM (SK-MEL-5): 93%; growth at 10 µM (SK-MEL-2): 98% |
| Cc1nn(-c2ccccc2)c2ncnc(Nc3ccc(OCCCBr)cc3)c12 | 101% | 83.7% | 104% | 92.4% | 84.8% | 92.5% | 99% | 87.4% | 94.2% | 102% | 106% | 92.1% | 103% | 115% | 60.9% | 108% | 93.8% | 101% | 64.3% | 45.6% | growth at 10 µM (HCT-116): 81.5%; growth at 10 µM (SW-620): 108%; growth at 10 µM (NCI-H460): 123%; growth at 10 µM (K562): 100%; growth at 10 µM (KM12): 99.6%; growth at 10 µM (TK-10): 89.9%; growth at 10 µM (SR): 81.4%; growth at 10 µM (HCT-15): 90%; growth at 10 µM (SF-268): 103%; growth at 10 µM (ACHN): 109%; growth at 10 µM (SK-MEL-5): 86.6%; growth at 10 µM (SK-MEL-2): 84% |
| Cc1nc(Nc2ccc(OCCCBr)cc2)c2cnn(-c3ccccc3)c2n1 | 107% | 93.6% | 97.6% | 88.2% | 94.4% | 76.5% | 90.7% | 80.4% | 75.7% | 104% | 94.6% | 93.6% | 100% | 88.7% | 72.2% | 106% | 82.4% | 81.1% | 91.6% | 81.6% | growth at 10 µM (HCT-116): 67.2%; growth at 10 µM (SW-620): 93.3%; growth at 10 µM (NCI-H460): 95.1%; growth at 10 µM (K562): 102%; growth at 10 µM (KM12): 98.3%; growth at 10 µM (TK-10): 113%; growth at 10 µM (SR): 85.2%; growth at 10 µM (HCT-15): 99.2%; growth at 10 µM (SF-268): 86.9%; growth at 10 µM (ACHN): 103%; growth at 10 µM (SK-MEL-5): 96.2%; growth at 10 µM (SK-MEL-2): 98% |
| Cc1nc(Nc2ccc(OCCCBr)cc2)c2c(C)nn(-c3ccccc3)c2n1 | 105% | 92% | 96.2% | 95.7% | 93.3% | 90.9% | 97.5% | 94% | 94.6% | 97.9% | 98.3% | 94.8% | 91.4% | 105% | 78.7% | 109% | 90.3% | 90% | 83.6% | 76.1% | growth at 10 µM (HCT-116): 81.3%; growth at 10 µM (SW-620): 111%; growth at 10 µM (NCI-H460): 113%; growth at 10 µM (K562): 100%; growth at 10 µM (KM12): 96.6%; growth at 10 µM (TK-10): 94.5%; growth at 10 µM (SR): 74.6%; growth at 10 µM (HCT-15): 94%; growth at 10 µM (SF-268): 93.8%; growth at 10 µM (ACHN): 108%; growth at 10 µM (SK-MEL-5): 96.1%; growth at 10 µM (SK-MEL-2): 91.5% |
